Consider 14 compounds from patent US20230265116A1, “DEGRADATION OF (EGFR) BY CONJUGATION OF EGFR INHIBITORS WITH E3 LIGASE LIGAND AND METHODS OF USE” (BEIGENE, LTD., priority 2020, published 2023).

The target in assay [1] is T1, EGFR L858R/T790M/C797S (BaF3-LTC cells) (Homo sapiens, UniProt P00533, C797S/L858R/T790M).
T1 construct: expressed in transfected cells; host or cells: BaF3
As to the kind of experiment: EGFR degradation HTRF assay, BaF3-LTC cells. The format is cell-based. The following applies: BaF3-LTC, 16h treatment; for Dmax: maximum percentage of degradation, read-out: LTC Dmax (%); for DC50: read-out: LTC DC50. The gist of the method: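 Cells treated 16 h at 37 °C, 5% CO2 in medium with 0.2% DMSO; top final concentration 10 uM, 5-fold dilution, 8 doses. Lysates read by HTRF (665/620 nm); degradation % versus DMSO high control, DC50 from four-parameter fit, Dmax as maximal degradation.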
A general note: TR-FRET usually uses a lanthanide donor and a delayed reading to cut background.

For assay [2], the system named is EGFR Del19/T790M/C797S (BaF3-DTC cells). As to the kind of experiment: EGFR degradation HTRF assay, BaF3-DTC cells. The format is cell-based. To be noted: 16h treatment; for DTC Dmax (%): maximum percentage of degradation; for DC50: read-out: DTC DC50. The method in brief: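 EGFR remaining after a 16 h, 37 °C exposure (8 doses, 5-fold steps from 10 uM final, 0.2% DMSO) was quantified by HTRF antibodies in cell lysate. Percent inhibition relative to DMSO control was fitted by four-parameter logistic to give DC50; Dmax denotes maximal degradation.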

Broadly, the Dmax is the largest share of the target that was removed. As a reminder, the DC50 is the concentration giving 50% degradation.

T1 sequence (P00533 25-1210 T790M/C797S/L858R): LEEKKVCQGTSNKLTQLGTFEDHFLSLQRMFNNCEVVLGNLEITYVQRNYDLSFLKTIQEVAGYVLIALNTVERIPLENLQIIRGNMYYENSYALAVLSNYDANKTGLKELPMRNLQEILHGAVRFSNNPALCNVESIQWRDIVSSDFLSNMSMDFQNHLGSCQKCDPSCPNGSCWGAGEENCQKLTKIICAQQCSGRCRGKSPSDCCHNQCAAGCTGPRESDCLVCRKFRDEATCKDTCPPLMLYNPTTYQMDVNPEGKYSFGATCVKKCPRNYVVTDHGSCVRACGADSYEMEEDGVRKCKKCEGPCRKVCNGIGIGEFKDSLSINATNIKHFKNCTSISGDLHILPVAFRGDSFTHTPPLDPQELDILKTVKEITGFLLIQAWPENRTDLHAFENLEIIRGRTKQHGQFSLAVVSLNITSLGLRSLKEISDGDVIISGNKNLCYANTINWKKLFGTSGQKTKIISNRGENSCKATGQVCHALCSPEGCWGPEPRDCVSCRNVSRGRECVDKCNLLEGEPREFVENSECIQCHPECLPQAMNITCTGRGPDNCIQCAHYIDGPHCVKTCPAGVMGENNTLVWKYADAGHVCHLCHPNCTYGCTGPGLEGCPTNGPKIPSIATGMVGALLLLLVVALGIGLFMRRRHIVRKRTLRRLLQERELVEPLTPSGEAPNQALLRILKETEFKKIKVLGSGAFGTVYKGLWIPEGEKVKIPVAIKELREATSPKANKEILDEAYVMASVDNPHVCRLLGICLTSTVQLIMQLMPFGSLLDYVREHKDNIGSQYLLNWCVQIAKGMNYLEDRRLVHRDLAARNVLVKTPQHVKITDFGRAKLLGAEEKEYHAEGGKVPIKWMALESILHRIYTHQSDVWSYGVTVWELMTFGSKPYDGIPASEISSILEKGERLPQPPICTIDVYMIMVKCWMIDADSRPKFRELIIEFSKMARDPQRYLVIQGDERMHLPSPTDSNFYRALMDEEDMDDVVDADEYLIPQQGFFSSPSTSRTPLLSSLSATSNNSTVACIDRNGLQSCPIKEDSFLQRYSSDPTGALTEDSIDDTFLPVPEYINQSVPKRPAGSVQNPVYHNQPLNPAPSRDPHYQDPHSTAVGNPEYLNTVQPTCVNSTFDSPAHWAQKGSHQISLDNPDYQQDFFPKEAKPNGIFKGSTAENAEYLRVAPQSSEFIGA

Take `CCc1cc(Nc2ncc(Br)c(Nc3ccc4nccnc4c3P(C)(C)=O)n2)c(OC)cc1N1CCC(N2CCN(C(=O)C3CN(c4ccc5c(c4)C(=O)N(C4CCC(=O)NC4=O)C5)C3)CC2)CC1` (centres unmarked) [Example 227, 3-(6-(3-(4-(1-(4-((5-bromo-4-((5-(dimethylphosphoryl)quinoxalin-6-yl)amino)pyrimidin-2-yl)amino)-2-ethyl-5-methoxyphenyl)piperidin-4-yl)piperazine-1-carbonyl)azetidin-1-yl)-1-oxoisoindolin-2-yl)piperidine-2,6-dione]: in assay [1], the Dmax came out at 91.8% and the DC50 amounted to 10.3 nM. For the same compound, in assay [2], the “DTC Dmax (%)” value amounted to 90.5% and the DC50 was determined as 4.87 nM.
Take `CCc1cc(Nc2ncc(Br)c(Nc3ccc4nccnc4c3P(C)(C)=O)n2)c(OC)cc1N1CCC(N2CCN(C(=O)C3CN(c4ccc(C5CCC(=O)NC5=O)c(F)c4)C3)CC2)CC1` (centres unmarked) [Example 228, 3-(4-(3-(4-(1-(4-((5-bromo-4-((5-(dimethylphosphoryl)quinoxalin-6-yl)amino)pyrimidin-2-yl)amino)-2-ethyl-5-methoxyphenyl)piperidin-4-yl)piperazine-1-carbonyl)azetidin-1-yl)-2-fluorophenyl)piperidine-2,6-dione]: in assay [1], the Dmax was found to be 81.8% and the DC50 amounted to 19.8 nM. Moreover, in assay [2], the “DTC Dmax (%)” value was 79.14% and the DC50 was found to be 3.49 nM.
In the same order, the values of `CCc1cc(Nc2ncc(Br)c(Nc3ccc4nccnc4c3P(C)(C)=O)n2)c(OC)cc1N1CCC(N2CCN(C(=O)C3CN(c4cccc(C5CCC(=O)NC5=O)c4)C3)CC2)CC1` (centres unmarked) [Example 230, 3-(3-(3-(4-(1-(4-((5-bromo-4-((5-(dimethylphosphoryl)quinoxalin-6-yl)amino)pyrimidin-2-yl)amino)-2-ethyl-5-methoxyphenyl)piperidin-4-yl)piperazine-1-carbonyl)azetidin-1-yl)phenyl)piperidine-2,6-dione] are 72%, 19.8 nM, 73.42% and 9.11 nM.
Take `CCc1cc(Nc2ncc(Br)c(Nc3ccc4nccnc4c3P(C)(C)=O)n2)c(OC)cc1N1CCC(N2CCN(CC3CN(c4ccc(C5CCC(=O)NC5=O)cc4)C3)CC2)CC1` (centres unmarked) [Example 231, 3-(4-(3-((4-(1-(4-((5-bromo-4-((5-(dimethylphosphoryl)quinoxalin-6-yl)amino)pyrimidin-2-yl)amino)-2-ethyl-5-methoxyphenyl)piperidin-4-yl)piperazin-1-yl)methyl)azetidin-1-yl)phenyl)piperidine-2,6-dione]: in assay [1], the Dmax is 77.6% and the half-maximal degradation concentration (DC50) was found to be 25.3 nM. Besides, in assay [2], the “DTC Dmax (%)” value came out at 76.04% and the DC50 worked out at 8.28 nM.
For the compound `CCc1cc(Nc2ncc(Br)c(Nc3ccc4nccnc4c3P(C)(C)=O)n2)c(OC)cc1N1CCC(N2CCN(C[C@H]3CCN(c4ccc5c(c4)C(=O)N(C4CCC(=O)NC4=O)C5=O)C3)CC2)CC1` (stereo partly drawn) [Example 232, 5-((R)-3-((4-(1-(4-((5-bromo-4-((5-(dimethylphosphoryl)quinoxalin-6-yl)amino)pyrimidin-2-yl)amino)-2-ethyl-5-methoxyphenyl)piperidin-4-yl)piperazin-1-yl)methyl)pyrrolidin-1-yl)-2-(2,6-dioxopiperidin-3-yl)isoindoline-1,3-dione], in assay [1], the Dmax turned out to be 86.9% and the DC50 stood at 43 nM. In addition, in assay [2], the “DTC Dmax (%)” value is 86.38% and the DC50 was found to be 23.8 nM.
With `CCc1cc(Nc2ncc(Br)c(Nc3ccc4nccnc4c3P(C)(C)=O)n2)c(OC)cc1N1CCC(N2CCN(CCc3cc(F)c(C4CCC(=O)NC4=O)cc3F)CC2)CC1` (centres unmarked) [Example 233, 3-(4-(2-(4-(1-(4-((5-bromo-4-((5-(dimethylphosphoryl)quinoxalin-6-yl)amino)pyrimidin-2-yl)amino)-2-ethyl-5-methoxyphenyl)piperidin-4-yl)piperazin-1-yl)ethyl)-2,5-difluorophenyl)piperidine-2,6-dione], in assay [1], the Dmax came to 80.6% and the DC50 was determined as 35.3 nM. Moreover, in assay [2], the “DTC Dmax (%)” value is listed as 86.57% and the DC50 amounted to 13.1 nM.
In the same order, the values of `CCc1cc(Nc2ncc(Br)c(Nc3ccc4nccnc4c3P(C)(C)=O)n2)c(OC)cc1N1CCC(N2CCN(C[C@@H]3CCN(c4ccc5c(c4)CN(C4CCC(=O)NC4=O)C5=O)C3)CC2)CC1` (stereo partly drawn) [Example 234, 3-(5-((S)-3-((4-(1-(4-((5-bromo-4-((5-(dimethylphosphoryl)quinoxalin-6-yl)amino)pyrimidin-2-yl)amino)-2-ethyl-5-methoxyphenyl)piperidin-4-yl)piperazin-1-yl)methyl)pyrrolidin-1-yl)-1-oxoisoindolin-2-yl)piperidine-2,6-dione] are 87.8%, 15.8 nM, 90.55% and 4.19 nM.
In the same order, the values of `CCc1cc(Nc2ncc(Br)c(Nc3ccc4nccnc4c3P(C)(C)=O)n2)c(OC)cc1N1CCC(N2CCN(C[C@@H]3CCN(c4ccc5c(c4)C(=O)N(C4CCC(=O)NC4=O)C5=O)C3)CC2)CC1` (stereo partly drawn) [Example 235, 5-((S)-3-((4-(1-(4-((5-bromo-4-((5-(dimethylphosphoryl)quinoxalin-6-yl)amino)pyrimidin-2-yl)amino)-2-ethyl-5-methoxyphenyl)piperidin-4-yl)piperazin-1-yl)methyl)pyrrolidin-1-yl)-2-(2,6-dioxopiperidin-3-yl)isoindoline-1,3-dione] are 78%, 30.1 nM, 81.09% and 17.5 nM.
Turning to `CCc1cc(Nc2ncc(Br)c(Nc3ccc4nccnc4c3P(C)(C)=O)n2)c(OC)cc1N1CCC(N2CCN(C(=O)[C@H]3C[C@H](N(C)c4ccc5c(c4)C(=O)N(C4CCC(=O)NC4=O)C5=O)C3)CC2)CC1` (some centres unmarked) [Example 236, 5-(((1r,3r)-3-(4-(1-(4-((5-bromo-4-((5-(dimethylphosphoryl)quinoxalin-6-yl)amino)pyrimidin-2-yl)amino)-2-ethyl-5-methoxyphenyl)piperidin-4-yl)piperazine-1-carbonyl)cyclobutyl)(methyl)amino)-2-(2,6-dioxopiperidin-3-yl)isoindoline-1,3-dione], in assay [1], the Dmax was found to be 83% and the DC50 was 33.5 nM. In assay [2], the “DTC Dmax (%)” value amounted to 90.89% and the 50% degradation concentration (DC50) amounted to 6.3 nM.
For `CCc1cc(Nc2ncc(Br)c(Nc3ccc4nccnc4c3P(C)(C)=O)n2)c(OC)cc1N1CCC(N2CCN(C[C@H]3CCN(c4ccc5c(c4)CN(C4CCC(=O)NC4=O)C5=O)C3)CC2)CC1` (stereo partly drawn) [Example 237, 3-(5-((R)-3-((4-(1-(4-((5-bromo-4-((5-(dimethylphosphoryl)quinoxalin-6-yl)amino)pyrimidin-2-yl)amino)-2-ethyl-5-methoxyphenyl)piperidin-4-yl)piperazin-1-yl)methyl)pyrrolidin-1-yl)-1-oxoisoindolin-2-yl)piperidine-2,6-dione], in assay [1], the maximal degradation (Dmax) amounted to 92.5% and the DC50 is 9.47 nM. In assay [2], the “DTC Dmax (%)” value is recorded as 92.67% and the DC50 was found to be 6.15 nM.
For the compound `CCc1cc(Nc2ncc(Br)c(Nc3ccc4nccnc4c3P(C)(C)=O)n2)c(OC)cc1N1CCC(N2CCN(CCc3cc(F)c(C4CCC(=O)NC4=O)c(Cl)c3)CC2)CC1` (centres unmarked) [Example 238, 3-(4-(2-(4-(1-(4-((5-bromo-4-((5-(dimethylphosphoryl)quinoxalin-6-yl)amino)pyrimidin-2-yl)amino)-2-ethyl-5-methoxyphenyl)piperidin-4-yl)piperazin-1-yl)ethyl)-2-chloro-6-fluorophenyl)piperidine-2,6-dione], in assay [1], the maximal degradation (Dmax) stood at 88.3% and the DC50 came to 39.3 nM. In addition, in assay [2], the “DTC Dmax (%)” value stood at 93.21% and the 50% degradation concentration (DC50) was determined as 9.2 nM.
The like results for `CCc1cc(Nc2ncc(Br)c(Nc3ccc4nccnc4c3P(C)(C)=O)n2)c(OC)cc1N1CCC(N2CCN(CC3CN(c4ccc5c(c4)C(=O)N(C4CCC(=O)NC4=O)C5)C3)CC2)CC1` (centres unmarked) [Example 239, 3-(6-(3-((4-(1-(4-((5-bromo-4-((5-(dimethylphosphoryl)quinoxalin-6-yl)amino)pyrimidin-2-yl)amino)-2-ethyl-5-methoxyphenyl)piperidin-4-yl)piperazin-1-yl)methyl)azetidin-1-yl)-1-oxoisoindolin-2-yl)piperidine-2,6-dione] were, in that order, 87%, 12.3 nM, 88.8% and 3.34 nM.
`CCc1cc(Nc2ncc(Br)c(Nc3ccc4nccnc4c3P(C)(C)=O)n2)c(OC)cc1N1CCC(N2CCN(C(=O)[C@H]3CCN(c4ccc5c(c4)CN(C4CCC(=O)NC4=O)C5=O)C3)CC2)CC1` (stereo partly drawn) [Example 240, 3-(5-((S)-3-(4-(1-(4-((5-bromo-4-((5-(dimethylphosphoryl)quinoxalin-6-yl)amino)pyrimidin-2-yl)amino)-2-ethyl-5-methoxyphenyl)piperidin-4-yl)piperazine-1-carbonyl)pyrrolidin-1-yl)-1-oxoisoindolin-2-yl)piperidine-2,6-dione]: in assay [1], the Dmax is 87.7% and the DC50 worked out at 5.95 nM. In addition, in assay [2], the “DTC Dmax (%)” value was determined as 89.2% and the DC50 was found to be 3.83 nM.
Regarding `CCc1cc(Nc2ncc(Br)c(Nc3ccc4nccnc4c3P(C)(C)=O)n2)c(OC)cc1N1CCC(N2CCN(C(=O)[C@@H]3CCN(c4ccc5c(c4)CN(C4CCC(=O)NC4=O)C5=O)C3)CC2)CC1` (stereo partly drawn) [Example 241, 3-(5-((R)-3-(4-(1-(4-((5-bromo-4-((5-(dimethylphosphoryl)quinoxalin-6-yl)amino)pyrimidin-2-yl)amino)-2-ethyl-5-methoxyphenyl)piperidin-4-yl)piperazine-1-carbonyl)pyrrolidin-1-yl)-1-oxoisoindolin-2-yl)piperidine-2,6-dione], in assay [1], the Dmax was 87.6% and the DC50 was 4.6 nM. Also, in assay [2], the “DTC Dmax (%)” value is recorded as 89.74% and the DC50 came out at 3.26 nM.
